Data taken from ChEMBL document CHEMBL3779840, “Discovery of 2-((3-Amino-4-methylphenyl)amino)-N-(2-methyl-5-(3-(trifluoromethyl)benzamido)phenyl)-4-(methylamino)pyrimidine-5-carboxamide (CHMFL-ABL-053) as a Potent, Selective, and Orally Available BCR-ABL/SRC/p38 Kinase Inhibitor for Chronic Myeloid Leukemia” (J Med Chem, 2016).

Legend:
K562 = test: Antiproliferative activity against human K562 cells assessed as cell viability after 72 hrs by CellTiter-Glo or CCK-8 assay; format: functional; conditions: K562, 72 h
[1] = target: Transcription factor ETV6/Tyrosine-protein kinase ABL1 (Homo sapiens) (UniProt P00519+P41212); conditions: BaF3
Description: Inhibition of Tel-ABL (unknown origin) expressed in mouse BA/F3 cells assessed as cell growth inhibition after 72 hrs by CellTiter-Glo or CCK-8 assay

[2] = target: Bcr/Abl fusion protein (Homo sapiens) (UniProt P00519+P11274); conditions: BaF3
Description: Inhibition of BCR/ABL p210 (unknown origin) expressed in mouse BA/F3 cells assessed as growth inhibition after 72 hrs by CellTiter-Glo or CCK-8 assay

[3] = Antiproliferative activity against mouse BA/F3 cells assessed as cell viability after 72 hrs by CellTiter-Glo or CCK-8 assay; format: cell-based, BaF3

Bcr/Abl fusion protein (Homo sapiens), sequence (P00519 whole entry, looked up, the tested form may be a part): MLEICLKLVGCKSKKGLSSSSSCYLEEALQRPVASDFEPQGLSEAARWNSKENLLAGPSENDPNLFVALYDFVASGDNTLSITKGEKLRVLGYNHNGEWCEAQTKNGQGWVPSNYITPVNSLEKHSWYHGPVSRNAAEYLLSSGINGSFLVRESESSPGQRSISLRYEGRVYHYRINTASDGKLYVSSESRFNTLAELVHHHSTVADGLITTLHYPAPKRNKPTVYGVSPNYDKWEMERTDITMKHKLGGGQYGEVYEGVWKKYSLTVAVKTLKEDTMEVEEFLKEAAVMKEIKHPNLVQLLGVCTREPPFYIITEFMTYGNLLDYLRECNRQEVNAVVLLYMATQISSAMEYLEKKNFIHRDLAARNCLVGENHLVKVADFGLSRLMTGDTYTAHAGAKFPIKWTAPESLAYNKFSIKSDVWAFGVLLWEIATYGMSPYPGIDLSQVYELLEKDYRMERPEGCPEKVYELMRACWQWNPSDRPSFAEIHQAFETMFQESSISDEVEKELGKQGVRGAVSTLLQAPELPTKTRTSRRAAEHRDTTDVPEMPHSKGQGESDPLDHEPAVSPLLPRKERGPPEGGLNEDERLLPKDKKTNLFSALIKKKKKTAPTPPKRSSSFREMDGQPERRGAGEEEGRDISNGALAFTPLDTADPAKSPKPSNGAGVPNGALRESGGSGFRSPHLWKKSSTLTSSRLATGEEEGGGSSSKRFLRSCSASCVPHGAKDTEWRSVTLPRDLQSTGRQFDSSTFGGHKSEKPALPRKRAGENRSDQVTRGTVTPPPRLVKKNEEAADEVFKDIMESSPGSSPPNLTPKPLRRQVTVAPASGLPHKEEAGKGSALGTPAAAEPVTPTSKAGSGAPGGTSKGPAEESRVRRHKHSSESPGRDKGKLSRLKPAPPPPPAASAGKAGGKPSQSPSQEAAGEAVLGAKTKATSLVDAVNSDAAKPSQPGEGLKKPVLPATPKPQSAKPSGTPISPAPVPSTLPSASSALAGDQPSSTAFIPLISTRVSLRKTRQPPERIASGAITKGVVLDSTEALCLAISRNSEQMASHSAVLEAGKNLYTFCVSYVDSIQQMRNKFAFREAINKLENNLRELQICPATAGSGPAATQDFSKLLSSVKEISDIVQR
Bcr/Abl fusion protein (Homo sapiens), sequence (P11274 whole entry, looked up, the tested form may be a part): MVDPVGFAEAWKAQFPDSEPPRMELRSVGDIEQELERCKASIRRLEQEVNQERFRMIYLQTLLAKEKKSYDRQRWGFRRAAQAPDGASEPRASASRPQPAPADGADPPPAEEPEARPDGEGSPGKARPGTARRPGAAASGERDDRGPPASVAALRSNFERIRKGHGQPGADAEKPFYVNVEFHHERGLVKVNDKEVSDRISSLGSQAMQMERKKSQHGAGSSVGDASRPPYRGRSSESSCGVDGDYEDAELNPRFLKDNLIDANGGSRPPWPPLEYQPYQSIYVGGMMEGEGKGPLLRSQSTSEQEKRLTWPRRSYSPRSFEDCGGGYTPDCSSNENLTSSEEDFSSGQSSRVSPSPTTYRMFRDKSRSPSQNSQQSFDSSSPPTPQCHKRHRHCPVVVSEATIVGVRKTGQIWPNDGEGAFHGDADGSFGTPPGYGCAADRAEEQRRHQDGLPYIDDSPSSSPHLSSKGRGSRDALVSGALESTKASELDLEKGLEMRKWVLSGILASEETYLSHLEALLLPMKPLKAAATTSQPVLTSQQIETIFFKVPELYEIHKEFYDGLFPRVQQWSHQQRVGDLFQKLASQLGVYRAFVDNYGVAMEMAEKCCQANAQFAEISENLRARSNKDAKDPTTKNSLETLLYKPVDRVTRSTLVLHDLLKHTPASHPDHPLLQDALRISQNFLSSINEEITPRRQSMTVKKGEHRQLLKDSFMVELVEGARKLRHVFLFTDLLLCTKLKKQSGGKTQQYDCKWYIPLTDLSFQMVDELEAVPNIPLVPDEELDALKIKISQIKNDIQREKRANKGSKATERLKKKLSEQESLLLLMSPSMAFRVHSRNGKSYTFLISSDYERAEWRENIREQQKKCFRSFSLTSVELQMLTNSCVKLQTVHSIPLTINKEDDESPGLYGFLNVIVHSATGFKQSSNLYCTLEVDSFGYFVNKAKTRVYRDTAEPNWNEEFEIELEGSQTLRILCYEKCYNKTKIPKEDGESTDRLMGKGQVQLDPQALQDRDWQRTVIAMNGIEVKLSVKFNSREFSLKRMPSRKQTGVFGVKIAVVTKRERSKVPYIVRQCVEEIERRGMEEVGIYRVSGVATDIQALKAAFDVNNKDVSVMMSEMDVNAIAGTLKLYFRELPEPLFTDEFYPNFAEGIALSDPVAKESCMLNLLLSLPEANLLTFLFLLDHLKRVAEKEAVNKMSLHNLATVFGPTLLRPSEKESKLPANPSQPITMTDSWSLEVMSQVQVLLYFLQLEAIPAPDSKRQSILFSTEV
Transcription factor ETV6/Tyrosine-protein kinase ABL1 (Homo sapiens), sequence (P00519 whole entry, looked up, the tested form may be a part): as the sequence (P00519 whole entry, looked up, the tested form may be a part) above
Transcription factor ETV6/Tyrosine-protein kinase ABL1 (Homo sapiens), sequence (P41212 whole entry, looked up, the tested form may be a part): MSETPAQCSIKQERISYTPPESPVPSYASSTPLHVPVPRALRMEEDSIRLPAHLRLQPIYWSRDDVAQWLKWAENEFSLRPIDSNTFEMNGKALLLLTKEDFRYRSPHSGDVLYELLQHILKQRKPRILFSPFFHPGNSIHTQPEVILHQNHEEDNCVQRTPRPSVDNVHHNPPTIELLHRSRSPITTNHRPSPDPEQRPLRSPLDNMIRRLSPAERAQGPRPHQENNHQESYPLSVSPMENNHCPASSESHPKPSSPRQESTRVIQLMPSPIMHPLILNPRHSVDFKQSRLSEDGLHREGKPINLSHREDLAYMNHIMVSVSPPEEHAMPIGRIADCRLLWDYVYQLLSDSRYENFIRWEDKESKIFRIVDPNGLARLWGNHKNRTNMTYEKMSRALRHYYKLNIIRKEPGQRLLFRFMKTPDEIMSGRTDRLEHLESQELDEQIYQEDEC

| Structure (SMILES) | GI50 (K562) [nM] | GI50 [1] [nM] | GI50 [2] [nM] | GI50 at 72 h [3] [nM] |
| --- | --- | --- | --- | --- |
| Cc1ccc(Nc2ncc(C(=O)Nc3cc(NC(=O)c4cccc(C(F)(F)F)c4)ccc3C)c(N(C)C)n2)cc1N | 1210 | 1030 | 1850 | > 10000 |
| CNc1nc(Nc2ccc(C)c(N)c2)ncc1C(=O)Nc1cc(NC(=O)c2cc(OC)cc(OC)c2)ccc1C | 230 | 628 | 311 | > 10000 |
| Cc1cccc(C(=O)Nc2ccc(C)c(N3Cc4cnc(Nc5ccc(C)c(N)c5)nc4N(C)C3=O)c2)c1 | 68.8 | 6 | 14 | > 10000 |
| Cc1ccc(Nc2ncc3c(n2)N(C)C(=O)N(c2cc(NC(=O)c4cccc(C(F)(F)F)c4)ccc2C)C3)cc1N(C)C | 28 | 42 | 30 | > 10000 |
| CNc1nc(Nc2ccc(C)c(N)c2)ncc1C(=O)Nc1cc(NC(=O)c2cccc(OC)c2)ccc1C | 330 | 524 | 570 | > 10000 |
| Cc1ccc(Nc2ncc3c(n2)N(C)C(=O)N(c2cc(NC(=O)c4cccc(C(F)(F)F)c4)ccc2C)C3)cn1 | 9 | – | – | 120 |
| Cc1ccc(NC(=O)c2cccc(C(F)(F)F)c2)cc1N1Cc2cnc(NC3CCNCC3)nc2N(C)C1=O | 19 | 100 | 150 | 3000 |
| Cc1ccc(NC(=O)c2cccc(C(F)(F)F)c2)cc1N1Cc2cnc(NC3CCN(C(=O)OC(C)(C)C)CC3)nc2N(C)C1=O | 18 | 105 | 55 | 7520 |
| CNc1nc(Nc2ccc(C)c(N)c2)ncc1C(=O)Nc1cc(NC(=O)c2ccccc2OC)ccc1C | 1980 | 5200 | 6400 | > 10000 |
| Cc1ccc(Nc2ncc(C(=O)Nc3cc(NC(=O)c4cccc(C(F)(F)F)c4)ccc3C)cn2)cc1N | 330 | 590 | 470 | > 10000 |
| CNc1nc(Nc2ccc(C)c([N+](=O)[O-])c2)ncc1C(=O)Nc1cc(NC(=O)c2ccccc2OC)ccc1C | > 10000 | > 10000 | > 10000 | > 10000 |
| Cc1ccc(NC(=O)c2cccc(C(F)(F)F)c2)cc1N1Cc2cnc(Nc3ccc(C)c(C(F)(F)F)c3)nc2N(C)C1=O | 29 | 185 | 67 | > 10000 |
| CNc1nc(Nc2ccc(C)c([N+](=O)[O-])c2)ncc1C(=O)Nc1cc(NC(=O)c2cc(OC)cc(OC)c2)ccc1C | 1070 | 2030 | 294 | > 10000 |
| CNc1nc(Nc2ccc(C)c(N)c2)ncc1C(=O)Nc1cc(NC(=O)c2ccc(OC)c(OC)c2)ccc1C | 380 | 1100 | 1600 | > 10000 |
| Cc1ccc(Nc2ncc3c(n2)N(C)C(=O)N(c2cc(NC(=O)c4cccc(C(F)(F)F)c4)ccc2C)C3)cc1C | 17 | 61 | 66 | 3760 |
| CNc1nc(Nc2ccc(C)c(N)c2)ncc1C(=O)Nc1cc(NC(=O)c2ccc3c(c2)OCCO3)ccc1C | 320 | 787 | 1100 | > 10000 |
| Cc1ccc(Oc2ncc3c(n2)N(C)C(=O)N(c2cc(NC(=O)c4cccc(C(F)(F)F)c4)ccc2C)C3)cc1N | 13 | 15 | 32 | > 10000 |
| Cc1cc(C)cc(C(=O)Nc2ccc(C)c(N3Cc4cnc(Nc5ccc(C)c(N)c5)nc4N(C)C3=O)c2)c1 | 26 | 31 | 42 | > 10000 |
| Cc1ccc(Nc2ncc3c(n2)N(C)C(=O)N(c2cc(NC(=O)c4cccc(-c5ccccc5)c4)ccc2C)C3)cc1N | 23 | 39 | 46 | > 10000 |

| Structure (SMILES) | GI50 (K562) [nM] | GI50 [1] [nM] | GI50 [2] [nM] | GI50 at 72 h [3] [nM] |
| --- | --- | --- | --- | --- |
| CNc1nc(Nc2ccc(C)c(N)c2)ncc1C(=O)Nc1cc(NC(=O)c2ccc(OC)cc2)ccc1C | 610 | 1300 | 2100 | > 10000 |
| Cc1ccc(NC(=O)c2cccc(C(F)(F)F)c2)cc1N1Cc2cnc(OC3CCNCC3)nc2N(C)C1=O | 220 | 2040 | 2700 | > 10000 |
| CNc1nc(Nc2ccc(C)c([N+](=O)[O-])c2)ncc1C(=O)Nc1cc(NC(=O)c2cccc(C(F)(F)F)c2)ccc1C | 52 | 87 | 36 | > 10000 |
| CNc1cc(Nc2ncc3c(n2)N(C)C(=O)N(c2cc(NC(=O)c4cccc(C(F)(F)F)c4)ccc2C)C3)ccc1C | 19 | 20 | 14 | > 10000 |
| Cc1ccc(NC(=O)c2cccc(C(F)(F)F)c2)cc1N1Cc2cnc(O[C@H]3CCNC3)nc2N(C)C1=O | 450 | 1380 | 1260 | > 10000 |
| CNc1nc(Nc2ccc(C)c([N+](=O)[O-])c2)ncc1C(=O)Nc1cc(NC(=O)c2ccc3c(c2)OCO3)ccc1C | 499 | 1290 | 214 | > 10000 |
| Cc1ccc(NC(=O)c2cccc(C(F)(F)F)c2)cc1N1Cc2cnc(OC3CCN(C(=O)OC(C)(C)C)CC3)nc2N(C)C1=O | 29 | 288 | 132 | > 10000 |
| CNc1nc(Nc2ccc(C)c(N)c2)ncc1C(=O)Nc1cc(NC(=O)c2cc(OC)c(OC)c(OC)c2)ccc1C | 250 | 445 | 670 | > 10000 |
| Cc1ccc(NC(=O)c2cccc(C(F)(F)F)c2)cc1NC(=O)c1cnc(Nc2ccc(C)c([N+](=O)[O-])c2)nc1N(C)C | > 10000 | > 10000 | > 10000 | > 10000 |
| CNc1nc(Nc2ccc(C)c([N+](=O)[O-])c2)ncc1C(=O)Nc1cc(NC(=O)c2cc(OC)c(OC)c(OC)c2)ccc1C | 430 | 931 | 1500 | > 10000 |
| CNc1nc(Nc2ccc(C)c([N+](=O)[O-])c2)ncc1C(=O)Nc1cc(NC(=O)c2ccc3c(c2)OCCO3)ccc1C | 320 | 4240 | 4100 | > 10000 |
| Cc1ccc(Nc2ncc3c(n2)N(C)C(=O)N(c2cc(NC(=O)c4cc(C(C)(C)C)cc(C(C)(C)C)c4)ccc2C)C3)cc1N | 1300 | 96 | 120 | > 10000 |
| CNc1nc(Nc2ccc(C)c(N)c2)ncc1C(=O)Nc1cc(NC(=O)c2ccc3c(c2)OCO3)ccc1C | 353 | 570 | 124 | > 10000 |
| Cc1ccc(NC(=O)c2cccc(C(F)(F)F)c2)cc1N1Cc2cnc(O[C@H]3CCN(C(=O)OC(C)(C)C)C3)nc2N(C)C1=O | 30 | 292 | 126 | 8380 |
| CNc1nc(Nc2ccc(C)c([N+](=O)[O-])c2)ncc1C(=O)Nc1cc(NC(=O)c2ccc(OC)cc2)ccc1C | 1530 | 2900 | 3600 | > 10000 |
| Cc1ccc(NC(=O)c2cccc(C(F)(F)F)c2)cc1N1Cc2cnc(NCCCN3CCOCC3)nc2N(C)C1=O | 7 | 9 | 15 | 5600 |
| Cc1ccc(Nc2ncc3c(n2)N(C)C(=O)N(c2cc(NC(=O)c4cccc(C(F)(F)F)c4)ccc2C)C3)cc1 | 18 | 50 | 19 | 8000 |
| CNc1nc(Nc2ccc(C)c([N+](=O)[O-])c2)ncc1C(=O)Nc1cc(NC(=O)c2ccc(OC)c(OC)c2)ccc1C | 680 | 1400 | 1600 | 7300 |
| CNc1nc(Nc2ccc(C)c([N+](=O)[O-])c2)ncc1C(=O)Nc1cc(NC(=O)c2cccc(OC)c2)ccc1C | 480 | 983 | 1100 | 6310 |
